Assay: Pharmacokinetics of Compound 40 and benzene sulfonate thereof in ICR mice, PO
Details: mouse, in vivo, PO 100 mg/kg (based on free base), 40% Hp-β-CD

AUC(0-t): 11900 ng·h/mL | Cmax: 2900 ng/mL | Tmax: 0.5 h | AUC(0-inf) (read-out: AUCINF—pred): 12100 ng·h/mL | half-life (read-out: T½ (converted)): 4.27 h
Structure (SMILES): Cn1nnc(-c2ccc(CCNc3nc(N)n4nc(-c5ccco5)nc4n3)cc2)n1 [Compound 40, N5-(4-(2-methyl-2H-tetrazol-5-yl)phenethyl)-2-(furan-2-yl)-[1,2,4]triazolo[1,5-a][1,3,5]triazine-5,7-diamine]
